Results taken from patent US20130158043A1, “PAK INHIBITORS FOR THE TREATMENT OF CANCER” (AFRAXIS, INC., priority 2011, published 2013).

Molecular target: T1, p-PAK1(S144) (Rattus norvegicus, UniProt P35465)
T1 construct: endogenous in cells; host or cells: RT4-D6P2T
Test: In vitro p-PAK1(S144) cellular HTRF assay
Type: cell-based
Settings: cell line RT4-D6P2T, read-out: pPAK1(S144) IC50
Source text: Compounds for treatment of cancer are subject to in vitro cellular HTRF assay for p-PAK1(S144). The cell line is RT4-D6P2T. The HTRF assay kits are obtained from Cisbio Bioassays, 135 South Road, Bedford, Mass. 01730, USA.

T1 sequence (P35465 whole entry): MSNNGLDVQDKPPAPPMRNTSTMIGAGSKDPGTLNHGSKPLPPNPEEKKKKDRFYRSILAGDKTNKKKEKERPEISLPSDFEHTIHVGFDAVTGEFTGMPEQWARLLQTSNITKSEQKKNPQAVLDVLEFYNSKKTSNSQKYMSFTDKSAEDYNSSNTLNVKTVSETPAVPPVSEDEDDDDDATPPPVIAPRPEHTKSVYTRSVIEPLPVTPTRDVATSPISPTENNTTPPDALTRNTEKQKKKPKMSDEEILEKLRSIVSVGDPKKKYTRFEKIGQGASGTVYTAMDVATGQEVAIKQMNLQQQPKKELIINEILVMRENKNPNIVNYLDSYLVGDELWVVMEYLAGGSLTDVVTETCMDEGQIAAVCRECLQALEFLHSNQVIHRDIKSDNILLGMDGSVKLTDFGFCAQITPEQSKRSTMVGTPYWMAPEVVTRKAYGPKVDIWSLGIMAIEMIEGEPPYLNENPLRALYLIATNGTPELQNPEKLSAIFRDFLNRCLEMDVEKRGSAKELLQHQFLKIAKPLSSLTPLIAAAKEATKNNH

Compound | IC50 [nM]
CN1CCN(c2ccc(Nc3ncc4cc(-c5ccc(-c6cccnc6F)cc5Cl)c(=O)n(C)c4n3)cc2)CC1 | 50 to 500
CCN1CCN(c2ccc(Nc3ncc4cc(-c5ccc(-c6cccnc6)cc5Cl)c(=O)n(CC)c4n3)cc2F)CC1 [drawing 756] | 50 to 500
